Test results taken from patent US20230000934A1, “METHODS FOR ENGINEERING THERAPEUTICS AND USES THEREOF” (The Trustees of Columbia University In The City of New York, priority 2019, published 2023).

Key:
S. cerevisiae = format: cell-based, Saccharomyces cerevisiae
Description: The third primary library (PL3) mediates TAN-1612 high-titer toxicity by merging three complimentary routes. This example (i) optimizes performance of an efflux pump in order to reduce intracellular TAN-1612 concentrations, (ii) screens a large number of wild yeast isolates for higher TAN-1612 tolerance and use them for background crossing and (iii) evolves the v2.0 producer for TAN-1612 resistance through random mutagenesis and selection. In preliminary results, TAN-1612 and anhydrotetracycline (Atc) growth inhibition in concentrations of 10 mg/L was confirmed. In order to increase TAN-1612 tolerance the v2.0 producer co-expresses the supposed efflux pump […]_48051 (GenBank: EHA19824.1) that was obtained by genome-mining from the natural producer strain A. niger. […] This can improve pump performance via gene titration and genome-mines other efflux pumps. PL3 further includes of a large number (>50) of wild S. cerevisiae isolates that are screened for higher tolerance to TAN-1612 using a growth-based microtiter plate assay.

[1] = cited from earlier work
[2] = tested on: cofactor F420 reductase from Methanobacterium thermoautotrophicum; conditions: as substrate of the F420 reductase; cited from earlier work
[3] = tested on: Saccharomyces cerevisiae BJ5464; assay: Toxicity assay of TAN-1612 in Saccharomyces cerevisiae; format: cell-based
Description: The toxicity assay of TAN-1612 in Saccharomyces cerevisiae. BJ5464 strains were cultured in complete synthetic medium in presence of different tetracycline or its analogs. […] (FIG. 42B) BJ5464 strains were cultured in YPD: non-defined medium in presence of different tetracycline or its analogs. (FIG. 42A). […] (FIG. 43).

In the case of Cc1c2c(c(O)c3c(O)cccc13)C(=O)[C@]1(O)C(=O)C(C(N)=O)=C(O)[C@@H](N(C)C)[C@@H]1C2 [anhydrotetracycline, reference compound], the “growth inhibition in concentrations of” value (S. cerevisiae) is reported as 10 mg/L.
For OCC1OC(OC23CC4CC(CC(C4)C2)C3)C(O)C(O)C1O (stereo not shown), the “Relative rate of acid hydrolysis (to OMe)” value [1] is given as 48.5.
In the case of O=c1nc2n(C[C@H](O)[C@H](O)[C@H](O)CO)c3cc(O)ccc3cc-2c(=O)[nH]1 [Fo, 7,8-didemethyl-8-hydroxy-5-deazariboflavin], the Km [2] is given as 34 µM.
For OCC1OC(OC(c2ccccc2)c2ccccc2)C(O)C(O)C1O (stereo not shown), the “Relative rate of acid hydrolysis (to OMe)” value [1] is listed as 25.6.
For COc1cc(O)c2c(O)c3c(cc2c1)CC1(O)CC(=O)C(C(C)=O)=C(O)C1(O)C3=O (stereo not shown) [TAN-1612], the “toxicity at the range of” value ([3]; BJ5464 cultured in YPD non-defined medium) was 50 to 100 mg/L, the “toxicity at the range of” value ([3]; BJ5464 cultured in complete synthetic medium) was 1 to 10 mg/L and the “growth inhibition in concentrations of” value (S. cerevisiae) was 10 mg/L.
